Data on one molecule can be found in the NIST ThermoML archive (doi:10.1016/j.jct.2004.01.006).

± gives the expanded uncertainty stated by the source.

The conditions of series [1]: Crystal; Adiabatic calorimetry.
Series [2] in a line: Molar enthalpy of transition or fusion. The settings on record: Crystal; Adiabatic calorimetry.

In the case of `O=Cc1ccc(Cl)cc1Cl` [2,4-dichlorobenzaldehyde], in series [1], the Triple point temperature turned out to be 347.24 ± 0.27 K. The “Molar enthalpy of transition or fusion” value in series [2] turned out to be 4.892 ± 0.0167 kcal/mol.
